In ChEMBL document CHEMBL4507283, “Data for DCP probe BI-1935” (2021):

Tests used:
[1] = target: Maternal embryonic leucine zipper kinase (Homo sapiens) (UniProt Q14680); conditions: Compound concentration 1000.0 nM
[2] = target: Serine/threonine-protein kinase 32A (Homo sapiens) (UniProt Q8WU08); conditions: Compound concentration 1000.0 nM
[3] = target: Uncharacterized serine/threonine-protein kinase SBK3 (Homo sapiens) (UniProt P0C264); conditions: Compound concentration 1000.0 nM
[4] = target: Rho-associated protein kinase 2 (Homo sapiens) (UniProt O75116); conditions: Compound concentration 1000.0 nM
[5] = test system: Receptor-type tyrosine-protein kinase FLT3 (Homo sapiens), P36888 [D835H]; conditions: Compound concentration 1000.0 nM
[6] = target: Bone morphogenetic protein receptor type-2 (Homo sapiens) (UniProt Q13873); conditions: Compound concentration 1000.0 nM
[7] = target: Tyrosine-protein kinase HCK (Homo sapiens) (UniProt P08631); conditions: Compound concentration 1000.0 nM
[8] = target: Receptor-type tyrosine-protein kinase FLT3 (Homo sapiens) (UniProt P36888); conditions: Compound concentration 1000.0 nM
[9] = target: Cyclin-dependent kinase 5 (Homo sapiens) (UniProt Q00535); conditions: Compound concentration 1000.0 nM
[10] = target: Mitogen-activated protein kinase kinase kinase 7 (Homo sapiens) (UniProt O43318); conditions: Compound concentration 1000.0 nM
[11] = target: Cyclin-dependent kinase 8 (Homo sapiens) (UniProt P49336); conditions: Compound concentration 1000.0 nM
[12] = target: Cyclin-dependent kinase 2 homolog (Plasmodium falciparum (isolate 3D7)) (UniProt P61075); conditions: Compound concentration 1000.0 nM
[13] = target: Glycogen synthase kinase-3 alpha (Homo sapiens) (UniProt P49840); conditions: Compound concentration 1000.0 nM
Chain of Glycogen synthase kinase-3 alpha (Homo sapiens) (P49840 2-483 limits assumed): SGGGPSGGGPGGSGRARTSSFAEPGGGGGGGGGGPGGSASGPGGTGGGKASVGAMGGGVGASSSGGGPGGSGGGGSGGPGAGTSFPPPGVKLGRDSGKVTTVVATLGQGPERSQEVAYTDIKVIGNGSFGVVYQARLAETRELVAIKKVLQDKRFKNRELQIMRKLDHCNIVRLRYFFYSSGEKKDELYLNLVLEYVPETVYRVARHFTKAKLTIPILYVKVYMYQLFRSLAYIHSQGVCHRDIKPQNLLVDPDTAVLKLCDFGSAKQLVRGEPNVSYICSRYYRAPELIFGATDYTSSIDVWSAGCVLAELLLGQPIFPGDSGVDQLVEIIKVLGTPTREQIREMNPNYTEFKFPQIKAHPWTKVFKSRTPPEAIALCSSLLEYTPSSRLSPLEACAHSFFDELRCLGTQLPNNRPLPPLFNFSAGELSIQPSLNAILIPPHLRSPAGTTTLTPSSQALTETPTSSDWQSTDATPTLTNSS

[14] = target: Mitogen-activated protein kinase kinase kinase 10 (Homo sapiens) (UniProt Q02779); conditions: Compound concentration 1000.0 nM
[15] = target: Citron Rho-interacting kinase (Homo sapiens) (UniProt O14578); conditions: Compound concentration 1000.0 nM
[16] = target: Rhodopsin kinase GRK7 (Homo sapiens) (UniProt Q8WTQ7); conditions: Compound concentration 1000.0 nM
Chain of Rhodopsin kinase GRK7 (Homo sapiens) (Q8WTQ7 whole entry): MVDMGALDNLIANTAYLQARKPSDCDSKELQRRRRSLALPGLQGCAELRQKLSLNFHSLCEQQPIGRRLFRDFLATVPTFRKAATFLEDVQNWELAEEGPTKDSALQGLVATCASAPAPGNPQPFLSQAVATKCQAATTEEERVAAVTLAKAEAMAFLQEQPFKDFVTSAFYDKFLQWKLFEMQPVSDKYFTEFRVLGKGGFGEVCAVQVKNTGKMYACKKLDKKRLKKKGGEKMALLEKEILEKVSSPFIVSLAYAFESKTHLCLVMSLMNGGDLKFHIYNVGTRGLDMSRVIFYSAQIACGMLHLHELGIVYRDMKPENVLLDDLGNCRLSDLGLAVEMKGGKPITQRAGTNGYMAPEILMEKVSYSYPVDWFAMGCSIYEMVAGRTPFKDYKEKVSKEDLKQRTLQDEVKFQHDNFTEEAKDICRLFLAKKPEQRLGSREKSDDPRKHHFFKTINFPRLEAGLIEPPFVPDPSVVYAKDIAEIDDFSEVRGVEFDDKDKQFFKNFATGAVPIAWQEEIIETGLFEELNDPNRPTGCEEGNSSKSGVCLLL

[17] = target: Cyclin-dependent kinase 3 (Homo sapiens) (UniProt Q00526); conditions: Compound concentration 1000.0 nM
Chain of Cyclin-dependent kinase 3 (Homo sapiens) (Q00526 whole entry, looked up): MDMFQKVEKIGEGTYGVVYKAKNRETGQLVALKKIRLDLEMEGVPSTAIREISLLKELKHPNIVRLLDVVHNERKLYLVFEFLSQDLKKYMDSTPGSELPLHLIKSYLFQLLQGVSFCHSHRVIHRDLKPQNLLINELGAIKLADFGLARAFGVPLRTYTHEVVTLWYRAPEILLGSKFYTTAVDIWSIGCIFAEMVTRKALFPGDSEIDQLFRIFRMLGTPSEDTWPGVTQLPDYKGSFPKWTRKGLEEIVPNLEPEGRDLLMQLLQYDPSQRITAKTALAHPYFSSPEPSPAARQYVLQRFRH

[18] = target: 3-phosphoinositide-dependent protein kinase 1 (Homo sapiens) (UniProt O15530); conditions: Compound concentration 1000.0 nM
[19] = target: Adrenergic receptor alpha-2 (Rattus norvegicus) (UniProt P22086+P19328+P22909); assay: ALPHA2/R Eurofins-Panlabs selectivity data (BI); type: protein assay; conditions: Compound concentration 10.0 uM
[20] = target: Calcium/calmodulin-dependent protein kinase kinase 2 (Homo sapiens) (UniProt Q96RR4); conditions: Compound concentration 1000.0 nM
[21] = target: ALK tyrosine kinase receptor (Homo sapiens) (UniProt Q9UM73); conditions: Compound concentration 1000.0 nM
[22] = target: T1, 5-hydroxytryptamine receptor 3A (Homo sapiens) (UniProt P46098); assay: 5HT3/HU Eurofins-Panlabs selectivity data (BI); conditions: Compound concentration 10.0 uM
T1 sequence (whole entry): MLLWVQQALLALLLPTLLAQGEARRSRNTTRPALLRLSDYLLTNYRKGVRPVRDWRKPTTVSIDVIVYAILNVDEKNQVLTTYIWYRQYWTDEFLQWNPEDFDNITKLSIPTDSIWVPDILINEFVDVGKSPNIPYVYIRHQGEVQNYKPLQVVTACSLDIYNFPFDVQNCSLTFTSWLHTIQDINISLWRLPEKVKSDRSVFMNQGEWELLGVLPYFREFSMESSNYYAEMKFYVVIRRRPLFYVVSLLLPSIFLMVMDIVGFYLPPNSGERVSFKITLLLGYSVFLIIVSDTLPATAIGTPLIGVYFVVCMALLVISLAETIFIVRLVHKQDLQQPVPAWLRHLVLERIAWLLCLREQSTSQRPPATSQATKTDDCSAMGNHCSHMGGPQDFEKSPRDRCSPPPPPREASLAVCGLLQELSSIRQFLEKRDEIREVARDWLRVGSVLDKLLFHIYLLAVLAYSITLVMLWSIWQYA

[23] = target: Leucine-rich repeat serine/threonine-protein kinase 2 (Homo sapiens) (UniProt Q5S007); conditions: Compound concentration 1000.0 nM
[24] = target: cAMP-dependent protein kinase catalytic subunit PRKX (Homo sapiens) (UniProt P51817); conditions: Compound concentration 1000.0 nM
Chain of cAMP-dependent protein kinase catalytic subunit PRKX (Homo sapiens) (P51817 whole entry, canonical isoform): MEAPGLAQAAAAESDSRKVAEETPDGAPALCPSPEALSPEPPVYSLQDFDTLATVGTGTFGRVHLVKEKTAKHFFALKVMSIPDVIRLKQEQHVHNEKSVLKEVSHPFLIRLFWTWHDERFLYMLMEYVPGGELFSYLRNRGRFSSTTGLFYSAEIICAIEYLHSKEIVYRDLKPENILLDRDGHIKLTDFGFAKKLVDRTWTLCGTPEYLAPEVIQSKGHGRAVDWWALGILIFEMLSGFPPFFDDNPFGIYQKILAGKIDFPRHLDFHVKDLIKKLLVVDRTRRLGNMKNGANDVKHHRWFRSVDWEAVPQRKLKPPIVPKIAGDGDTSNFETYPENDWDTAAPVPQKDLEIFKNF

[25] = test system: Phosphatidylinositol 4,5-bisphosphate 3-kinase catalytic subunit alpha isoform (Homo sapiens), P42336 [I800L]; conditions: Compound concentration 1000.0 nM
[26] = target: Phosphatidylinositol 3-kinase C2 domain-containing subunit gamma (Homo sapiens) (UniProt O75747); conditions: Compound concentration 1000.0 nM
[27] = target: Acetylcholine receptor subunit alpha (Homo sapiens) (UniProt P02708); assay: NACH/H Eurofins-Panlabs selectivity data (BI); conditions: Compound concentration 10.0 uM
[28] = target: D(3) dopamine receptor (Homo sapiens) (UniProt P35462); assay: D3/HU Eurofins-Panlabs selectivity data (BI); conditions: Compound concentration 10.0 uM
[29] = target: D(1A) dopamine receptor (Homo sapiens) (UniProt P21728); conditions: Compound concentration 10.0 uM
Chain of D(1A) dopamine receptor (Homo sapiens) (P21728 whole entry): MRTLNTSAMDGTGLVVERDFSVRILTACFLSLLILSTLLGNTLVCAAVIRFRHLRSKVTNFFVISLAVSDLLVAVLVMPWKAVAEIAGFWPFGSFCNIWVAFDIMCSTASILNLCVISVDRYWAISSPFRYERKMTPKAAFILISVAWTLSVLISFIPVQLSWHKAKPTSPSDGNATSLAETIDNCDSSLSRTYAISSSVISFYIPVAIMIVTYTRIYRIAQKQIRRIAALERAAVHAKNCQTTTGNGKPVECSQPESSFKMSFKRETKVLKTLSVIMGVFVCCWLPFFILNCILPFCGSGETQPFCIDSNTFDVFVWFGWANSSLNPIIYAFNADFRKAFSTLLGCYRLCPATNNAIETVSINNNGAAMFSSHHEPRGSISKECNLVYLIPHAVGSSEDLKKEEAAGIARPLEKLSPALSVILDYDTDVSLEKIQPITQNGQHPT

[30] = test system: Tyrosine-protein kinase ABL1 (Homo sapiens), P00519 [Y253F]; conditions: Compound concentration 1000.0 nM
[31] = target: Calcium-dependent protein kinase 1 (Plasmodium falciparum) (UniProt P62344); conditions: Compound concentration 1000.0 nM
[32] = target: Serine/threonine-protein kinase Nek11 (Homo sapiens) (UniProt Q8NG66); conditions: Compound concentration 1000.0 nM
[33] = target: Cyclin-dependent kinase 13 (Homo sapiens) (UniProt Q14004); conditions: Compound concentration 1000.0 nM
[34] = target: cGMP-dependent protein kinase 2 (Homo sapiens) (UniProt Q13237); conditions: Compound concentration 1000.0 nM
[35] = test system: Phosphatidylinositol 4,5-bisphosphate 3-kinase catalytic subunit alpha isoform (Homo sapiens), P42336 [Q546K]; conditions: Compound concentration 1000.0 nM
[36] = target: Mitotic checkpoint serine/threonine-protein kinase BUB1 (Homo sapiens) (UniProt O43683); conditions: Compound concentration 1000.0 nM
Chain of Mitotic checkpoint serine/threonine-protein kinase BUB1 (Homo sapiens) (O43683 whole entry, looked up): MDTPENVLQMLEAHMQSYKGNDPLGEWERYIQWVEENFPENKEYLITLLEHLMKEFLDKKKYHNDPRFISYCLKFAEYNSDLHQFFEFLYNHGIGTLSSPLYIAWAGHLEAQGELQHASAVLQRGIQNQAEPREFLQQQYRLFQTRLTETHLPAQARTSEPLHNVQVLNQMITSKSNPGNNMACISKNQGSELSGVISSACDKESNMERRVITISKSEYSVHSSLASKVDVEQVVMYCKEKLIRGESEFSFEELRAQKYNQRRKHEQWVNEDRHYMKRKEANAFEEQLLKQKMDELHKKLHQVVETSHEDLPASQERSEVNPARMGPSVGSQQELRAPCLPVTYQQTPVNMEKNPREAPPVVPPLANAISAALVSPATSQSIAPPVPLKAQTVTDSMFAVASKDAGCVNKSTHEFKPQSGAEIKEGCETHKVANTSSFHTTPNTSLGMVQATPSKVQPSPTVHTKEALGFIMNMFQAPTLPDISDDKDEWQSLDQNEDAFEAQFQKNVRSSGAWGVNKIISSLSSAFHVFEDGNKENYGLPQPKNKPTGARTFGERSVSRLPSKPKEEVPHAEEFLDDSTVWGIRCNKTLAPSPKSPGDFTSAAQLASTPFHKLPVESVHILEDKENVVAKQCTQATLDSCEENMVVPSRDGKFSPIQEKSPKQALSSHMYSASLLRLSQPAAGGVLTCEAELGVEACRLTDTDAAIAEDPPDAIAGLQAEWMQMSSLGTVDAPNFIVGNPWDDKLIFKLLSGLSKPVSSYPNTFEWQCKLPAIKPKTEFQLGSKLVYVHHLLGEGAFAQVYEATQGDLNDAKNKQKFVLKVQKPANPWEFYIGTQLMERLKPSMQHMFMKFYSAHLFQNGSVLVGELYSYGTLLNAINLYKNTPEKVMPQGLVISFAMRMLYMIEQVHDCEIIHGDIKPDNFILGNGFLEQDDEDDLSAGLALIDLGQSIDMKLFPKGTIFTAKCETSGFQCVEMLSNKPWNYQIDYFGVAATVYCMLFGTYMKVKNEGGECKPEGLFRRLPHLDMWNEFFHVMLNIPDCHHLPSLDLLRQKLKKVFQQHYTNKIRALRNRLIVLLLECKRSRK

[37] = target: Tyrosine-protein kinase FRK (Homo sapiens) (UniProt P42685); conditions: Compound concentration 1000.0 nM
Chain of Tyrosine-protein kinase FRK (Homo sapiens) (P42685 whole entry): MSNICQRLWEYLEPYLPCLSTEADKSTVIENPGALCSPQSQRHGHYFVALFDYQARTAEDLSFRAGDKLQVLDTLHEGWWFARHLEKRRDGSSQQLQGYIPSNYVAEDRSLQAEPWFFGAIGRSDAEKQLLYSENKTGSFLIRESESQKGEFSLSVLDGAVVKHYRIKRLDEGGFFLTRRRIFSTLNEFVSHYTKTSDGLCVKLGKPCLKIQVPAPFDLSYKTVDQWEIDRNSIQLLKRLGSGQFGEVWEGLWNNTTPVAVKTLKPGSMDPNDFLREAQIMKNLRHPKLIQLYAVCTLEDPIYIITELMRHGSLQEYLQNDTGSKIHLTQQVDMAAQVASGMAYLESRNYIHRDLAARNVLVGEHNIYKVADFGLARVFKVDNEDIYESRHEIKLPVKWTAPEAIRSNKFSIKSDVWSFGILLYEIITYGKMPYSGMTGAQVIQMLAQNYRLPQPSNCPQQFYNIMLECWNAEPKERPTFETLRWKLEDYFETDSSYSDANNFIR

[38] = target: Serine/threonine-protein kinase SIK1 (Homo sapiens) (UniProt P57059); conditions: Compound concentration 1000.0 nM
Chain of Serine/threonine-protein kinase SIK1 (Homo sapiens) (P57059 whole entry): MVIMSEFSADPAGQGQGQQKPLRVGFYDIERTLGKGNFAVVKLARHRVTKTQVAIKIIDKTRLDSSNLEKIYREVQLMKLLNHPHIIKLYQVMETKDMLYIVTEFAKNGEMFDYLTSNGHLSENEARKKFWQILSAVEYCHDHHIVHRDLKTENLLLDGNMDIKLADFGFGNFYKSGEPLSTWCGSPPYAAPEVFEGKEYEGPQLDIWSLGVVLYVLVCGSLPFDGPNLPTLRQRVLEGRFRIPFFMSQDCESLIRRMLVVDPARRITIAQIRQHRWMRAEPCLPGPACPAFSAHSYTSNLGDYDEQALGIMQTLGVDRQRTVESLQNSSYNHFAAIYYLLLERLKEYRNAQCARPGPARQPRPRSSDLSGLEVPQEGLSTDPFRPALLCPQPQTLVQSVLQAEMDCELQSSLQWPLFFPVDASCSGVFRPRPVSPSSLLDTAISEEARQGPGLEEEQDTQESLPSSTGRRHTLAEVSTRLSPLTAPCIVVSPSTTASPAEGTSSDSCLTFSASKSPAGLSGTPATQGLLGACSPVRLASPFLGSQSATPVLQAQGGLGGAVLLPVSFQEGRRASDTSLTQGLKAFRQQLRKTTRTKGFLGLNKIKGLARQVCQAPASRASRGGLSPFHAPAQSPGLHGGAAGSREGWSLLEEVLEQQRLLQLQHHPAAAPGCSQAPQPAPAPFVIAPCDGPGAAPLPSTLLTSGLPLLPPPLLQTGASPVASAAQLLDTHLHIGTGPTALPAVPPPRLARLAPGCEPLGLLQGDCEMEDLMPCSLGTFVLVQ

Chain of Uncharacterized serine/threonine-protein kinase SBK3 (Homo sapiens) (P0C264 whole entry): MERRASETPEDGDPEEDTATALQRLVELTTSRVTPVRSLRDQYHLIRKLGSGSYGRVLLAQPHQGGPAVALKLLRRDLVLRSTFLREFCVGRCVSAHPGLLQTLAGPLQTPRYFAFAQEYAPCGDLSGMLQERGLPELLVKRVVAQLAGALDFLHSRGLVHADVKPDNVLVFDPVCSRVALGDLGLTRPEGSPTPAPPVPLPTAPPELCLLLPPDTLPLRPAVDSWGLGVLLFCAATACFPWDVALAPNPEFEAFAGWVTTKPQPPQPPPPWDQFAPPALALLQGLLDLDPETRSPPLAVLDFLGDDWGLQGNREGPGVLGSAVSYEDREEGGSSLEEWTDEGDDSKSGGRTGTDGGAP

CCOCCn1cc(C(=O)Nc2ccc(-n3nc(-c4cccnc4)cc3C(F)(F)F)cn2)ccc1=O [BI 1935]
inactive: residual activity [1] 93% | residual activity [2] 96% | residual activity [3] 78% | residual activity [4] 88% | residual activity [5] 87% | residual activity [6] 100% | residual activity [7] 93% | residual activity [8] 63% | residual activity [9] 100% | residual activity [10] 90% | residual activity [11] 100% | residual activity [12] 86% | residual activity [13] 100% | residual activity [14] 100% | residual activity [15] 97% | residual activity [16] 88% | residual activity [17] 100% | residual activity [18] 87% | residual activity [19] 91% | residual activity [20] 100% | residual activity [21] 79% | residual activity [22] 117% | residual activity [23] 100% | residual activity [24] 100% | residual activity [25] 71% | residual activity [26] 85% | residual activity [27] 114% | residual activity [28] 110% | inhibition [29] -7.31% | residual activity [30] 73% | residual activity [31] 71% | residual activity [32] 96% | residual activity [33] 92% | residual activity [34] 100% | residual activity [35] 95% | residual activity [36] 79% | residual activity [37] 100% | residual activity [38] 100%
